Measured values: US20110059869A1, “Method for Increasing Enzymatic Reactivity” (RIKEN, priority 2008, published 2011)

How the values were obtained:
Assay type in all cases: biochemical
[1] = test system: XhoI, PstI, HindIII, and EcoRI; test: DNA cleavage reactions by various restriction enzymes on bead and plate surfaces; conditions: 0.6 M trehalose vs none, all enzymes
Procedure: Differences in activity based on the type of enzyme in reactions under conditions where trehalose was present and absent and for various reactions surface shapes were examined. XhoI, PstI, HindIII, and EcoRI were employed as restriction enzymes to conduct reactions cleaving the same site on a DNA fragment with different enzymes (Scheme 8).
Cleavage reactions by various restriction enzymes were conducted on biotin-labeled DNA fragments I, II, and III (Seq. ID Nos. 4 to 6, Scheme 4) on bead surfaces. […] Paramagnetic streptavidin beads were washed with accessory 1× binding buffer, recovered with a magnetic stand to remove the supernatant, and suspended in the same buffer. […] The precipitate of DNA fragments obtained was dissolved in 1× TE (pH 7.5) and analyzed with Bioanalyzer DNA 1000 assay (Agilent Technologies).
Biotin-labeled DNA fragments II and III (Seq. ID Nos. 5 and 6, Scheme 4) were subjected to cleavage reactions by different restriction enzymes on horizontal streptavidin-coated plate surfaces. […] The precipitate of DNA fragments obtained was dissolved in 1× TE (pH 7.5) and analyzed with Bioanalyzer DNA 1000 assay (Agilent Technologies).

[2] = test system: enzyme reaction solution in a Genome Analyzer system; test: Sequencing reaction in a Solexa sequencing system (Genome Analyzer), PhiX control; conditions: trehalose 0.15 M, 0.3 M
Procedure: D(+)-trehalose was added to the enzyme reaction solution in a Genome Analyzer system (GAI) and the results were measured. The experiment was conducted with the three D(+)-trehalose final concentrations of 0.15 M, 0.3 M, and 0.51 M. The ratio of the reduction in the average value obtained by dividing the fluorescence intensity calculated for each cycle by the number of clusters was employed for comparison.
The D(+)-trehalose employed was D(+)-trehalose (90208 BioChemika, ≧99.5% (HPLC) (Fluka). A 36-cycle Illumina Sequencing Kit (FC-204-2036) was employed for sequencing with a Genome Analyzer (Illumina). The sample employed was PhiX control (CT-901-1001).
The IMX36 (42 mL) in box 2 of the SBS Kit contained in the 36-Cycle SBS Reagent Kit v2 (IIlumina catalog #FC-204-2036) was melted, after which D(+)-trehalose was added in the quantities indicated in Table 3.
Following the addition, the mixture was shielded from light and gently mixed with top to bottom inversion for 10 minutes at room temperature. Once the dissolution had been visually confirmed, the mixture was passed through a filter (with a filter pore system of 0.22 micrometers). Precisely the required 42 mL was collected from the mixed solution following filtration. Subsequently, the operations specified in the manufacturer's protocol were conducted.

[3] = test system: sequencing enzyme reaction solution of a Genome Sequencer FLX system; test: Sequencing reaction of the 454 sequencing system (Genome Sequencer FLX); conditions: trehalose 0.15 M and 0.3 M in sequencing reaction vs none
Procedure: In the 454 sequencing system described in 11 above, trehalose was added to the reaction solution to a final concentration of 0.3 M, the sequencing reaction was conducted, and the effect on the sequencing level was observed.
D(+)-trehalose was added to the sequencing enzyme reaction solution of a Genome Sequencer FLX system and the effects were measured. Two experiments were conducted with final D(+)-trehalose concentrations of 0.15 M and 0.3 M. The ratio of the read length to the decodable sample was employed for comparison.
The D(+)-trehalose employed was D(+)-trehalose dihydrate (201-02253 reagent grade) (Wako). A GS LR 25 Sequencing Kit (502906) was employed for sequencing with the Genome Sequencer FLX system. The samples employed here were a PolyA minus full length cDNA library prepared in-house and human genome prepared according to the manufacturer's protocol.
The D(+)-trehalose dihydrate (201-02253 reagent grade) (Wako) was added in the following proportion to the Buffer CB among the reagents contained in the GS LR 25 Sequencing Kit (502906).
The mixture was stirred with a magnetic stirrer. Once dissolution had been visually confirmed, the mixed solution was passed through a filter (filter pore system 0.22 micrometer). Following filtration, precisely the required 2× 1000 mL quantities were collected from the mixed solution. […]

[4] = test system: XhoI, PstI, HindIII, and NotI; test: Various restriction enzyme reactions on biotin-labeled cDNA immobilized on streptavidin beads; conditions: 0.6 M trehalose vs trehalose (−); 3 hours at 37° C.; all enzymes
Procedure: Streptavidin beads on which were adsorbed double-stranded cDNA were washed with various restriction enzyme buffers. The restriction enzymes employed were XhoI, PstI, HindIII, and NotI. Two reaction solutions (various 1× buffers, 1× BSA based on enzyme, restriction enzyme 40 units) were prepared: a trehalose (+) system to which D(+)-trehalose was added to a final concentration of 0.6 M, and a trehalose (−) system, to which no trehalose was added. The reaction solutions were admixed to beads that had been washed and the mixtures were reacted for 3 hours at 37° C. A magnetic stand was used to recover (aggregate) the beads, cleavage was conducted with restriction enzyme, and the supernatant containing the cDNA that had been released was measured with a liquid scintillation counter. The cDNA yield and restriction enzyme efficiency were calculated from the RI count values (Scheme 2).

## OC[C@H]1O[C@H](O[C@H]2O[C@H](CO)[C@@H](O)[C@H](O)[C@H]2O)[C@H](O)[C@@H](O)[C@@H]1O [trehalose, D(+)-trehalose]
[1]
  enzymatic activity in cleavage reactions: increased activity
[2]; 35th cycle, 0.51 M, PhiX control
  difference in rate of reduction in fluorescence intensity, trehalose (+) vs trehalose (−): ≥ 20%
[2]; 0.51 M relative to trehalose (−)
  PhiX control mapping rate: overall significant difference
[3]
  number of sequences: increased the number of sequences
[4]
  quantity of released cDNA recovered: higher quantity was recovered
